Like-named read-outs stand apart in the source and are kept apart here.
Tests used:
[1] = biological target: T1, Recombinant Human TMPRSS2 (Homo sapiens, UniProt O15393); experiment: TMPRSS2 biochemical assay (Boc-Gln-Ala-Arg-AMC fluorogenic substrate); conditions: for inhibition at 0.000677404 µM: concentration 0.677404 nM; for inhibition at 0.00203221 µM: concentration 2.03221 nM; for inhibition at 0.00609663 µM: concentration 6.09663 nM; for inhibition at 0.0182899 µM: concentration 18.2899 nM; for inhibition at 0.0548697 µM: concentration 54.8697 nM; for inhibition at 0.164609 µM: concentration 164.609 nM; for inhibition at 0.493827 µM: concentration 493.827 nM; for inhibition at 1.48148 µM: concentration 1481.48 nM; for inhibition at 4.44444 µM: concentration 4444.44 nM; for inhibition at 13.3333 µM: concentration 13333.3 nM; for inhibition at 40 µM: concentration 40000 nM
T1 construct: human TMPRSS2 residues 106492, N-terminal 6x His-tag; 6x His-tag (N); purchased Cusabio CSB-YP023924HU; host or cells: yeast
Procedure: Inhibitors of TMPRSS2 were tested using a high throughput activity assay. […] TMPRSS2 (5 µl, 0.018 mg/ml) in assay buffer (50 mM Tris pH 8, 150 mM NaCl, 0.01% Tween20) was dispensed to that, using a BioRAPTR (Beckman Coulter), for a total assay volume of 5 µl.
After incubation at room temperature for 1 h, fluorescence was measured. […] Raw plate reads for each titration point were normalized relative to a positive control containing no enzyme (0% activity, full inhibition) and a negative control containing DMSO-only wells (100% activity, basal activity). Data normalization was performed using GraphPad Prism (GraphPad Software, San Diego, CA).
We employed the curve fitting algorithm available in the SciPy package (version 1.10.1)[61] to derive the Hill slope and the IC50 value, along with their corresponding error estimates.

[2] = tested on: vesicular stomatitis virus (VSV); format: cell-based; conditions: for mean log10(PFU/ml): VSV
[3] = tested on: pseudovirus bearing S protein of SARS-CoV-2 lineage B.1; experiment: organism not typed; format: cell-based; conditions: for inhibition at 0.00025 µM / inhibition at 0.0025 µM / inhibition at 0.025 µM / inhibition at 0.25 µM / inhibition at 2.5 µM / inhibition at 25 µM: Calu-3, B.1; for inhibition at 0.00025 µM: concentration 0.25 nM; for inhibition at 0.0025 µM: concentration 2.5 nM; for inhibition at 0.025 µM: concentration 25 nM; for inhibition at 0.25 µM: concentration 250 nM; for inhibition at 2.5 µM: concentration 2500 nM; for inhibition at 25 µM: concentration 25000 nM; for IC50: Calu-3 cells, read-out: IC50, pseudovirus cell entry B.1
[4] = tested on: pseudovirus bearing S protein of HCoV-NL63; experiment: organism not typed; format: cell-based; conditions: for IC50: Calu-3, read-out: IC50 estimate, pseudovirus cell entry NL63-S; for inhibition at 0.00025 µM / inhibition at 0.0025 µM / inhibition at 0.025 µM / inhibition at 0.25 µM / inhibition at 2.5 µM / inhibition at 25 µM: Calu-3, read-out: mean inhibition

T1 sequence (O15393 106-492 limits assumed): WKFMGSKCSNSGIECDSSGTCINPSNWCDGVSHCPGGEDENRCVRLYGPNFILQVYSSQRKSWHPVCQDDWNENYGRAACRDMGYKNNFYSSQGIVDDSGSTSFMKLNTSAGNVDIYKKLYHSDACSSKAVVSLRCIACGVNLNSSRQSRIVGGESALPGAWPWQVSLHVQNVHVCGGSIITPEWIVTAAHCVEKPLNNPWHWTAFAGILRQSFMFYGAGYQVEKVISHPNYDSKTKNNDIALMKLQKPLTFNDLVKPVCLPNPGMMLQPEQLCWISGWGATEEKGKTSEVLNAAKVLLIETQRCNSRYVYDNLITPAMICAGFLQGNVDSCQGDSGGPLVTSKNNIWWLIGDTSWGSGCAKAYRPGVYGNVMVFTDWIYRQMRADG

Structure (SMILES): CN(C)C(=O)COC(=O)Cc1ccc(OC(=O)c2ccc(NC(=N)N)cc2)cc1 [camostat]
- inhibition at 0.000677404 µM [1]: 13.8%
- inhibition at 0.00203221 µM [1]: 36.1%
- inhibition at 0.00609663 µM [1]: 68.3%
- inhibition at 0.0182899 µM [1]: 90.6%
- inhibition at 0.0548697 µM [1]: 102%
- inhibition at 0.164609 µM [1]: 103%
- inhibition at 0.493827 µM [1]: 105%
- inhibition at 1.48148 µM [1]: 105%
- inhibition at 4.44444 µM [1]: 104%
- inhibition at 13.3333 µM [1]: 104%
- inhibition at 40 µM [1]: 104%
- mean log10(PFU/ml) ([2]; concentration 5 nM): 9.003 log10(PFU/ml)
- mean log10(PFU/ml) ([2]; concentration 50 nM): 8.994 log10(PFU/ml)
- mean log10(PFU/ml) ([2]; concentration 500 nM): 9.01 log10(PFU/ml)
- mean log10(PFU/ml) ([2]; concentration 5000 nM): 9.013 log10(PFU/ml)
- mean log10(PFU/ml) ([2]; concentration 50000 nM): 8.989 log10(PFU/ml)
- inhibition at 0.00025 µM [3]: -1.94%
- inhibition at 0.0025 µM [3]: 3.06%
- inhibition at 0.025 µM [3]: 2.53%
- inhibition at 0.25 µM [3]: 60.8%
- inhibition at 2.5 µM [3]: 89.4%
- inhibition at 25 µM [3]: 96.6%
- IC50 [3]: 190 nM
- IC50 [4]: 806 ± 263 nM
- inhibition at 0.00025 µM [4]: -3.23%
- inhibition at 0.0025 µM [4]: 5.92%
- inhibition at 0.025 µM [4]: 15.4%
- inhibition at 0.25 µM [4]: 41.9%
- inhibition at 2.5 µM [4]: 66.4%
- inhibition at 25 µM [4]: 73.2%

Structure (SMILES): CC(C)(C)NC(=O)N1CCN(C(=O)N2C(=O)C(CCCNC(=N)N)C2C(=O)O)CC1 (stereo not shown) [BMS-262084]
- inhibition at 75.27 pM ([1]; concentration 0.0752671 nM): 1.73%
- inhibition at 0.000225801 µM ([1]; concentration 0.225801 nM): 16.6%
- inhibition at 0.000677404 µM [1]: 22.3%
- inhibition at 0.00203221 µM [1]: 54.4%
- inhibition at 0.00609663 µM [1]: 77.8%
- inhibition at 0.0182899 µM [1]: 91.4%
- inhibition at 0.0548697 µM [1]: 94.8%
- inhibition at 0.164609 µM [1]: 99.3%
- inhibition at 0.493827 µM [1]: 97.2%
- inhibition at 1.48148 µM [1]: 99%
- inhibition at 4.44444 µM [1]: 98%
- inhibition at 13.3333 µM [1]: 98.8%
- inhibition at 40 µM [1]: 93.2%
- IC50 ([1]; read-out: IC50, inhibition in TMPRSS2 biochemical assay): 1.82 nM
- effect on VSV infection [2]: not affected
- mean log10(PFU/ml) ([2]; concentration 5 nM): 9.0266 log10(PFU/ml)
- mean log10(PFU/ml) ([2]; concentration 50 nM): 9.0323 log10(PFU/ml)
- mean log10(PFU/ml) ([2]; concentration 500 nM): 9.005 log10(PFU/ml)
- mean log10(PFU/ml) ([2]; concentration 5000 nM): 9 log10(PFU/ml)
- mean log10(PFU/ml) ([2]; concentration 50000 nM): 9.006 log10(PFU/ml)
- inhibition at 0.00025 µM [3]: 7.25%
- inhibition at 0.0025 µM [3]: 11.1%
- inhibition at 0.025 µM [3]: 52.1%
- inhibition at 0.25 µM [3]: 86.2%
- inhibition at 2.5 µM [3]: 92.8%
- inhibition at 25 µM [3]: 93.3%
- IC50 [3]: 24.5 nM
- IC50 [4]: 432 ± 223 nM
- inhibition at 0.00025 µM [4]: -0.475%
- inhibition at 0.0025 µM [4]: 8.77%
- inhibition at 0.025 µM [4]: 16.9%
- inhibition at 0.25 µM [4]: 57.8%
- inhibition at 2.5 µM [4]: 66.8%
- inhibition at 25 µM [4]: 73.5%

Reference: paper PMC12307812 (Nature Communications, 2025)
